Measured values taken from article PMC12209991 (Clinical Pharmacology in Drug Development, 2025).
“Also recorded” adds a separate entry of the source.

Assays:
Type in all cases: in vivo, human
[1] = Food effect (high-fat breakfast) on RBN-3143 pharmacokinetics, cross-over; settings: single 500 mg oral dose; for Tmax / AUC(0-inf) / AUC(0-t) / Cmax: human, plasma, po, 500 mg; for Tmax: read-out: Median Tmax
Experimental: (§1) Analytes were separated by HPLC on a Waters Atlantis T3 analytical column using a gradient mobile phase (mobile phase A: 10% acetonitrile, 90% water, 10 mM ammonium acetate, 0.3% formic acid; mobile phase B: 90% acetonitrile, 10% water, 10 mM ammonium acetate, 0.3% formic acid) run at 0.4 mL/min with initial mobile phase B concentration of 30%.

[2] = Pantoprazole (PPI) effect on RBN-3143 pharmacokinetics, cross-over; settings: for AUC(0-inf) / AUC(0-t) / Cmax: human, plasma, po, single 500 mg oral dose
Experimental: as §1

[3] = Single ascending dose (SAD) pharmacokinetics in healthy volunteers; settings: for AUC(0-inf) / Cmax / Tmax: human, plasma, po; for Tmax: read-out: Tmax, median [min-max]
Experimental: as §1

Tmax ([1]; after a high-fat meal): 4 h
Tmax ([1]; fasted state): 2 h
AUC(0-inf) ([1]; fasted, N=13, linear mixed-effects model, read-out: AUCinf, GLSM): 13300 ng·h/mL
AUC(0-t) ([1]; fasted, N=13, linear mixed-effects model, read-out: AUClast, GLSM): 12900 ng·h/mL
Cmax ([1]; fasted, N=13, linear mixed-effects model, read-out: Cmax, GLSM): 1550 ng/mL
AUC(0-inf) ([1]; fasted, N=13, read-out: AUCinf, geometric mean (Geo CV%)): 13300 ng·h/mL
AUC(0-inf) ([1]; fasted, N=13, read-out: AUCinf, mean (SD)): 13800 ng·h/mL
AUC(0-t) ([1]; fasted, N=13, read-out: AUClast, geometric mean (Geo CV%)): 12800 ng·h/mL
AUC(0-t) ([1]; fasted, N=13, read-out: AUClast, mean (SD)): 13300 ng·h/mL
Cmax ([1]; fasted, N=13, read-out: Cmax, geometric mean (Geo CV%)): 1530 ng/mL
Cmax ([1]; fasted, N=13, read-out: Cmax, mean (SD)): 1600 ng/mL
AUC(0-inf) ([1]; fed (high-fat breakfast), N=13, linear mixed-effects model, read-out: AUCinf, GLSM): 18900 ng·h/mL
AUC(0-t) ([1]; fed (high-fat breakfast), N=13, linear mixed-effects model, read-out: AUClast, GLSM): 18700 ng·h/mL
Cmax ([1]; fed (high-fat breakfast), N=13, linear mixed-effects model, read-out: Cmax, GLSM): 2690 ng/mL
AUC(0-inf) ([1]; fed (high-fat breakfast), N=13, read-out: AUCinf, geometric mean (Geo CV%)): 18800 ng·h/mL
AUC(0-inf) ([1]; fed (high-fat breakfast), N=13, read-out: AUCinf, mean (SD)): 19600 ng·h/mL
AUC(0-t) ([1]; fed (high-fat breakfast), N=13, read-out: AUClast, geometric mean (Geo CV%)): 18600 ng·h/mL
AUC(0-t) ([1]; fed (high-fat breakfast), N=13, read-out: AUClast, mean (SD)): 19400 ng·h/mL
Cmax ([1]; fed (high-fat breakfast), N=13, read-out: Cmax, geometric mean (Geo CV%)): 2660 ng/mL
Cmax ([1]; fed (high-fat breakfast), N=13, read-out: Cmax, mean (SD)): 2780 ng/mL
delay of oral absorption with food [1]: about 2 hours
AUC(0-inf) ([2]; 500 mg, fasted without pantoprazole, N=12, linear mixed-effects model, read-out: AUCinf, GLSM): 13300 ng·h/mL
AUC(0-t) ([2]; 500 mg, fasted without pantoprazole, N=12, linear mixed-effects model, read-out: AUClast, GLSM): 12800 ng·h/mL
Cmax ([2]; 500 mg, fasted without pantoprazole, N=12, linear mixed-effects model, read-out: Cmax, GLSM): 1530 ng/mL
AUC(0-inf) ([2]; 500 mg, fasted without pantoprazole, read-out: AUCinf, geometric mean (Geo CV%)): 13300 ng·h/mL
AUC(0-inf) ([2]; 500 mg, fasted without pantoprazole, read-out: AUCinf, mean (SD)): 13800 ng·h/mL
AUC(0-t) ([2]; 500 mg, fasted without pantoprazole, read-out: AUClast, geometric mean (Geo CV%)): 12800 ng·h/mL
AUC(0-t) ([2]; 500 mg, fasted without pantoprazole, read-out: AUClast, mean (SD)): 13300 ng·h/mL
Cmax ([2]; 500 mg, fasted without pantoprazole, read-out: Cmax, geometric mean (Geo CV%)): 1530 ng/mL
Cmax ([2]; 500 mg, fasted without pantoprazole, read-out: Cmax, mean (SD)): 1600 ng/mL
AUC(0-inf) ([2]; fasted with pantoprazole 40 mg QD, N=12, linear mixed-effects model, read-out: AUCinf, GLSM): 13800 ng·h/mL
AUC(0-t) ([2]; fasted with pantoprazole 40 mg QD, N=12, linear mixed-effects model, read-out: AUClast, GLSM): 13400 ng·h/mL
Cmax ([2]; fasted with pantoprazole 40 mg QD, N=12, linear mixed-effects model, read-out: Cmax, GLSM): 1560 ng/mL
AUC(0-inf) ([2]; fasted with pantoprazole 40 mg QD, read-out: AUCinf, geometric mean (Geo CV%)): 13300 ng·h/mL
AUC(0-inf) ([2]; fasted with pantoprazole 40 mg QD, read-out: AUCinf, mean (SD)): 13700 ng·h/mL
AUC(0-t) ([2]; fasted with pantoprazole 40 mg QD, read-out: AUClast, geometric mean (Geo CV%)): 13000 ng·h/mL
AUC(0-t) ([2]; fasted with pantoprazole 40 mg QD, read-out: AUClast, mean (SD)): 13400 ng·h/mL
Cmax ([2]; fasted with pantoprazole 40 mg QD, read-out: Cmax, geometric mean (Geo CV%)): 1540 ng/mL
Cmax ([2]; fasted with pantoprazole 40 mg QD, read-out: Cmax, mean (SD)): 1580 ng/mL
RBN-3143 dose excreted in urine unchanged ([3]; SAD and MAD cohorts, pooled urine): Approximately 16%
AUC(0-inf) ([3]; 25 mg, single oral dose 25 mg, read-out: AUCinf, geometric mean (Geo CV%)): 734 ng·h/mL
AUC(0-inf) ([3]; 25 mg, single oral dose 25 mg, read-out: AUCinf, mean (SD)): 752 ng·h/mL
Cmax ([3]; 25 mg, single oral dose 25 mg, read-out: Cmax, geometric mean (Geo CV%)): 134 ng/mL
Cmax ([3]; 25 mg, single oral dose 25 mg, read-out: Cmax, mean (SD)): 138 ng/mL
Tmax ([3]; 25 mg, single oral dose 25 mg): 2 h
AUC(0-inf) ([3]; 50 mg, single oral dose 50 mg, read-out: AUCinf, geometric mean (Geo CV%)): 1540 ng·h/mL
AUC(0-inf) ([3]; 50 mg, single oral dose 50 mg, read-out: AUCinf, mean (SD)): 1560 ng·h/mL
Cmax ([3]; 50 mg, single oral dose 50 mg, read-out: Cmax, geometric mean (Geo CV%)): 259 ng/mL
Cmax ([3]; 50 mg, single oral dose 50 mg, read-out: Cmax, mean (SD)): 269 ng/mL
Tmax ([3]; 50 mg, single oral dose 50 mg): 2 h
AUC(0-inf) ([3]; 100 mg, single oral dose 100 mg, read-out: AUCinf, geometric mean (Geo CV%)): 3540 ng·h/mL
AUC(0-inf) ([3]; 100 mg, single oral dose 100 mg, read-out: AUCinf, mean (SD)): 3610 ng·h/mL
Cmax ([3]; 100 mg, single oral dose 100 mg, read-out: Cmax, geometric mean (Geo CV%)): 544 ng/mL
Cmax ([3]; 100 mg, single oral dose 100 mg, read-out: Cmax, mean (SD)): 556 ng/mL
Tmax ([3]; 100 mg, single oral dose 100 mg): 1.75 h
AUC(0-inf) ([3]; 150 mg, single oral dose 150 mg, read-out: AUCinf, geometric mean (Geo CV%)): 5000 ng·h/mL
SMILES: CC(=O)N1CCC(COc2cc(F)c3c(=O)[nH]c(CSC4CCOCC4)nc3c2)CC1 [RBN‐3143]
effect of pantoprazole on RBN-3143 exposure/PK ([2]; pantoprazole 40 mg QD pre-treatment, RBN-3143 500 mg): did not impact; also recorded: no effect; also recorded: did not alter; also recorded: unaffected
